The conditions of data set [1]: cumulative doses; cited from earlier work.
A further data set concerns rabbit electrocardiogram. The data set is described as follows: Electrocardiographic alterations after intravenous injection to the rabbit.
The test system of data set [2] is spleen weight and immunocompetent cells. The data set is described as follows: Comparative testing of immunosuppressive properties (spleen weight, immunocompetent cells).
In data set [3] the test system is leukemia 1210 mouse cells. The data set is described as follows: Inhibition of DNA synthesis of leukemia 1210 mouse cells. It counts as cell-based. Particulars: read-out: Percent of Inhibition of DNA Synthesis.
The target of data set [4] is T1, ATPase sodium-potassium dependent enzyme (Na-K ATPase) (Oryctolagus cuniculus, UniProt Q9N0Z6).
T1 construct: isolated from rabbit heart; from tissue; host or cells: rabbit heart
The data set is described as follows: Activity of the ATPase Na-K dependent enzyme isolated from rabbit heart. It counts as biochemical. An excerpt:
(§1) From these facts, it can be deduced, on the basis of the results of Table I as well, that the metallic derivative of doxorubicin formed with the metal proportion 2:1 or higher, lacks the inhibiting effect on the Na-K ATPase, that is to say, they would lack cardiotoxicity. […] The remaining chelates described herein may be expected to behave similarly. […] The compounds have the structure depicted in Formula I wherein R is as in Formula II and R1 is as given.

Data set [5] can be described thus: Passage of hematoencephalic and intestinal barriers. Particulars: in vivo.
Data set [6] concerns leukemia P-338 of the mouse. Nature of the data set: Therapeutic activity in leukemia P-338 of the mouse. It counts as in vivo. Particulars: 0 mg/kg 11 days.
Data set [7] in a line: Toxicity: survivors after one intraperitoneal injection in mice. Particulars: mouse, in vivo, ip. The method, then: The drugs were administered by only one intraperitoneal injection to groups of ten mice and the numbers of survivors were recorded after eight days.
The next data set deals with leucocytes. Nature of the data set: Hematological toxicity, leucocyte count. It counts as in vivo. The conditions noted are these: day 7, day 0 4.700.
For the next data set, the target named is Na-K ATPase (Oryctolagus cuniculus, UniProt Q9N0Z6). The data set is described as follows: 50% inhibition of Na-K ATPase by doxorubicin analogs. It counts as biochemical. Particulars: read-out: Concentration for 50% Inhibition NaK ATPase.
Source text: as §1

Where [8] appears, read: read-out: Percent of the ATPase Na-K Dependent Activity.

“Also recorded” adds a separate entry of the source.

Take `COc1cccc2c1C(=O)c1c(O)c3c(c(O)c1C2=O)C[C@@](O)(C(=O)CO)C[C@@H]3O[C@H]1C[C@H](N)[C@H](O)[C@H](C)O1` [Doxorubicin]: the “cumulative dose attended by severe, oftentimes lethal cardiotoxicity” value in data set [1] is given as more than 500 mg. per square meter. Besides, the “alterations of the electrocardiogram, in words” value with rabbit electrocardiogram is given as “very intense”. The “immunosuppression (spleen weight and immunocompetent cells)” value in data set [2] was “depressed spleen weight and immunocompetent cells to a significant extent”. Also, the inhibition at 3 µM in [3] (3 μM) amounted to 60%. In [3] (5 μM), the inhibition at 5 µM amounted to 68%. The inhibition at 7.5 µM in data set [3] (7.5 μM) amounted to 75%. Moreover, in data set [3] (10 μM), the inhibition at 10 µM turned out to be 90%. Moreover, in [4], the “effect of calcium on ATPase inhibition” value is listed as “counteracted by calcium”. Also, in [4], the “inhibition of Na-K ATPase, in words” value is reported as “strong inhibitor; also recorded: potent inhibitor”. In addition, the activity at 10 pM in [4] (setting [8]) is 40%. The activity at 0.001 µM in data set [4] (setting [8]) amounted to 25%. Further, the activity at 0.1 µM in data set [4] (setting [8]) amounted to 25%. Further, in [4] (setting [8]), the activity at 10 µM amounted to 25%. In addition, the activity at 100 fM in data set [4] (setting [8]) is 65%. In addition, the “passing both hematoencephalic and intestinal barriers” value in data set [5] is on record as “does not to an effective degree”. Also, the “Days of Mean Survival of Leukemic Mice” value in data set [6] (4 mg/kg i.p.) is 50 days; in data set [6] (8 mg/kg i.p.) it was 48 days; in data set [6] (12 mg/kg i.p.) it was 42 days; in data set [6] (24 mg/kg i.p.) it was 6 days; in [6] (36 mg/kg i.p.) it was 4 days. The survival at 192 h in data set [7] (10 mg/kg) amounted to 100%; in data set [7] (20 mg/kg), 60%; in data set [7] (30 mg/kg) it was 0%; in data set [7] (40 mg/kg), 0%; in [7] (50 mg/kg) it was 0%; in [7] (60 mg/kg) it was 0%. Moreover, the “Leucocyte Count/mm^3” value in the data set with leucocytes (10 mg/kg) is listed as 3.300 /mm^3; in the data set with leucocytes (20 mg/kg), 2.400 /mm^3.
As for `CCCCC(=O)NN=C(C)[C@]1(O)Cc2c(O)c3c(c(O)c2[C@@H](O[C@H]2C[C@H](N)[C@H](O)[C@H](C)O2)C1)C(=O)c1c(OC)cccc1C3=O` [NSC-211391], the IC50 on Na-K ATPase came to 1000 nM.
With `COc1cccc2c1C(=O)c1c(O)c3c(c(O)c1C2=O)C[C@@](O)(C(CO)=NNC(=O)c1ccccc1)C[C@@H]3O[C@H]1C[C@H](N)[C@H](O)[C@H](C)O1` [NSC-216071], at Na-K ATPase, the IC50 came out at 10000 nM.
As for `COc1ccc(C(=O)NN=C(C)[C@]2(O)Cc3c(O)c4c(c(O)c3[C@@H](O[C@H]3C[C@H](N)[C@H](O)[C@H](C)O3)C2)C(=O)c2c(OC)cccc2C4=O)cc1` [NSC-219976], on Na-K ATPase, the IC50 was determined as 1 nM.
With `COc1cccc2c1C(=O)c1c(O)c3c(c(O)c1C2=O)C[C@@](O)(C(C)=NNC(=O)c1ccc(O)cc1)C[C@@H]3O[C@H]1C[C@H](N)[C@H](O)[C@H](C)O1` [NSC-221264], the IC50 at Na-K ATPase was 0.1 nM.
On to `COc1cccc2c1C(=O)c1c(O)c3c(c(O)c1C2=O)C[C@@](O)(C(C)=NNC(=O)c1ccc([N+](=O)[O-])cc1)C[C@@H]3O[C@H]1C[C@H](N)[C@H](O)[C@H](C)O1` [NSC-221265], for which, at Na-K ATPase, the IC50 amounted to 10000 nM.
On to `COc1cccc2c1C(=O)c1c(O)c3c(c(O)c1C2=O)C[C@@](O)(/C(C)=N/NC(=O)c1ccc(Cl)c(Cl)c1)C[C@@H]3OC1CC(N)C(O)C(C)O1` (stereo partly shown) [NSC-221266], for which the IC50 at Na-K ATPase came out at 1000 nM.
`COc1cccc2c1C(=O)c1c(O)c3c(c(O)c1C2=O)C[C@@](O)(C(C)=NNC(=O)c1ccc(N(C)C)cc1)C[C@@H]3O[C@H]1C[C@H](N)[C@H](O)[C@H](C)O1` [NSC-227013]: the IC50 at Na-K ATPase was found to be 0.1 nM.
With `CCc1ccc(C(=O)N/N=C(\C)[C@]2(O)Cc3c(O)c4c(c(O)c3[C@H](O[C@H]3C[C@H](N)[C@H](O)[C@H](C)O3)C2)C(=O)c2c(OC)cccc2C4=O)cc1` [NSC-233854], the IC50 at Na-K ATPase was determined as 100 nM.
As to `CCCOc1ccc(C(=O)NN=C(C)[C@]2(O)Cc3c(O)c4c(c(O)c3[C@@H](O[C@H]3C[C@H](N)[C@H](O)[C@H](C)O3)C2)C(=O)c2c(OC)cccc2C4=O)cc1` [NSC-234740], the IC50 on Na-K ATPase came out at 10 nM.
As for `COc1cccc2c1C(=O)c1c(O)c3c(c(O)c1C2=O)CC(O)(/C(C)=N/NC(=O)c1ccc(-c2ccccc2)cc1)CC3OC1CC(N)C(O)C(C)O1` (stereo not shown) [NSC-236672], on Na-K ATPase, the IC50 turned out to be 1 nM.
On the same count and under the same terms, as for `COC(=O)[C@]1(O)Cc2c(O)c3c(c(O)c2[C@@H](O[C@H]2C[C@H](N)[C@H](O)[C@H](C)O2)C1)C(=O)c1c(OC)cccc1C3=O` [NSC-237638], the figure is 1 nM; as for `COc1cccc2c1C(=O)c1c(O)c3c(c(O)c1C2=O)C[C@@](O)(/C(CO)=N/NC(=O)c1ccc(Cl)c(Cl)c1)C[C@@H]3OC1CC(N)C(O)C(C)O1` (stereo partly shown) [NSC-237672], 10000 nM.

Usually inhibition stands for the percentage by which the read-out fell short of the control.
